{"source": "paper PMC10269878", "about": "(Microbiology Spectrum, 2023)", "key": {"in vivo": {"assay": "in vivo", "conditions": "mouse, po, 100 mg/kg"}, "[1]": {"conditions": "mouse, in vivo"}, "melioidosis": {"test_system": "melioidosis", "conditions": "in vivo; cited from earlier work"}}, "data": [{"smiles": "C[C@H]1c2cccc(O)c2C(=O)C2=C(O)[C@]3(O)C(=O)C(C(N)=O)=C(O)[C@@H](N(C)C)[C@@H]3[C@@H](O)[C@@H]21", "note": "[Doxycycline, doxycycline monohydrate]", "values": [{"measurement": "AUC(0-t)", "setting": "in vivo", "value": 12700, "unit": "ng·h/mL"}, {"measurement": "Tmax", "setting": "in vivo", "value": 1.24, "unit": "h"}, {"measurement": "half-life", "setting": "in vivo", "value": 2.56, "unit": "h"}, {"measurement": "k el", "setting": "in vivo", "value": "7.5e-05", "unit": "s⁻¹"}, {"measurement": "Doxycycline Absorption (ka)", "setting": "[1]", "value": 1.68, "unit": "h⁻¹"}, {"measurement": "Efficacy alone to clear melioidosis", "setting": "melioidosis", "value": "ineffective alone to clear melioidosis"}]}]}
